According to patent publication US4335249A, “Herbicidal diphenyl ethers, sulfides, sulfoxides and sulfones” (Rohm and Haas Company, priority 1976, dated 1982):

Columns and labels:
Assay type in all cases: in vivo
[1] = system: cocklebur (Xanthium pensylvanicum); test: Preemergence herbicidal activity, cocklebur; conditions: 2 lb/A; for pest or weed control at 2241.7 g/ha: Xanthium strumarium, pre-emergence, 336 h
Outline: (§1)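 Step one: plant crop and weed seeds in soil flats. Step two: spray the acetone-dissolved, water-diluted compound (carrier 50 gal/A, dose in lb/A) immediately for preemergence, or after two weeks' growth for postemergence. Step three: about two weeks on, rate phytotoxicity as percent killed.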

[2] = system: marigold (Tagetes spp.); test: Preemergence herbicidal activity, marigold; conditions: 2 lb/A; for pest or weed control at 2241.7 g/ha: pre-emergence, 336 h
Outline: as §1

[3] = system: morningglory (Ipomoca spp.); test: Preemergence herbicidal activity, morningglory; conditions: 2 lb/A; for pest or weed control at 2241.7 g/ha: Ipomoea, pre-emergence, 336 h
Outline: as §1

[4] = system: tomato (Lycopersicon esculentum); test: Preemergence herbicidal activity, tomato; conditions: Pre, 2 lb/A; for pest or weed control at 2241.7 g/ha: Solanum lycopersicum, pre-emergence, 336 h
Outline: as §1

[5] = system: velvetleaf (Abutilon theophrasti); test: Preemergence herbicidal activity, velvetleaf; conditions: Pre, 2 lb/A; for pest or weed control at 2241.7 g/ha: Abutilon theophrasti, pre-emergence, 336 h
Outline: as §1

[6] = system: barnyardgrass (Echinochloa crusgalli); test: Preemergence herbicidal activity, barnyardgrass; conditions: Pre, 2 lb/A; for pest or weed control at 2241.7 g/ha: Echinochloa crus-galli, pre-emergence, 336 h
Outline: (§2)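 Sown flats got a foliar or soil spray of compound in water-diluted acetone (carrier equivalent to 50 gallons/acre, rate in pounds per acre), given on the day of planting or, postemergence, once seedlings were two weeks old.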

[7] = system: downybrome (Bromus tectorum); test: Preemergence herbicidal activity, downybrome; conditions: Pre, 2 lb/A; for pest or weed control at 2241.7 g/ha: Bromus tectorum, pre-emergence, 336 h
Outline: as §1

[8] = system: foxtail (Setaria spp.); test: Preemergence herbicidal activity, foxtail; conditions: Pre, 2 lb/A; for pest or weed control at 2241.7 g/ha: Setaria, pre-emergence, 336 h
Outline: as §1

[9] = system: yellow nutsedge (Cyperus esculentus); test: Preemergence herbicidal activity, yellow nutsedge; conditions: 2 lb/A; for pest or weed control at 2241.7 g/ha: Cyperus, pre-emergence, 336 h
Outline: as §1

[10] = system: wild oats (Avena fatua); test: Preemergence herbicidal activity, wild oats; conditions: Pre, 2 lb/A; for pest or weed control at 2241.7 g/ha: Avena fatua, pre-emergence, 336 h, read-out: % control, Wild oat
Outline: as §1

[11] = system: cocklebur (Xanthium pensylvanicum); test: Postemergence herbicidal activity, cocklebur; conditions: 2 lb/A; for pest or weed control at 2241.7 g/ha: Xanthium strumarium, post-emergence, 336 h
Outline: as §1

[12] = system: marigold (Tagetes spp.); test: Postemergence herbicidal activity, marigold; conditions: 2 lb/A; for pest or weed control at 2241.7 g/ha: post-emergence, 336 h
Outline: as §1

[13] = system: morningglory (Ipomoca spp.); test: Postemergence herbicidal activity, morningglory; conditions: 2 lb/A; for pest or weed control at 2241.7 g/ha: Ipomoea, post-emergence, 336 h
Outline: as §1

[14] = system: tomato (Lycopersicon esculentum); test: Postemergence herbicidal activity, tomato; conditions: Post, 2 lb/A; for pest or weed control at 2241.7 g/ha: Solanum lycopersicum, post-emergence, 336 h
Outline: as §1

[15] = system: velvetleaf (Abutilon theophrasti); test: Postemergence herbicidal activity, velvetleaf; conditions: 2 lb/A; for pest or weed control at 2241.7 g/ha: Abutilon theophrasti, post-emergence, 336 h
Outline: as §2

[16] = system: barnyardgrass (Echinochloa crusgalli); test: Postemergence herbicidal activity, barnyardgrass; conditions: Post, 2 lb/A; for pest or weed control at 2241.7 g/ha: Echinochloa crus-galli, post-emergence, 336 h
Outline: as §2

[17] = system: downybrome (Bromus tectorum); test: Postemergence herbicidal activity, downybrome; conditions: Post, 2 lb/A; for pest or weed control at 2241.7 g/ha: Bromus tectorum, post-emergence, 336 h
Outline: as §1

[18] = system: foxtail (Setaria spp.); test: Postemergence herbicidal activity, foxtail; conditions: Post, 2 lb/A; for pest or weed control at 2241.7 g/ha: Setaria, post-emergence, 336 h
Outline: as §1

[19] = system: yellow nutsedge (Cyperus esculentus); test: Postemergence herbicidal activity, yellow nutsedge; conditions: 2 lb/A; for pest or weed control at 2241.7 g/ha: Cyperus, post-emergence, 336 h
Outline: as §1

[20] = system: wild oats (Avena fatua); test: Postemergence herbicidal activity, wild oats; conditions: Post, 2 lb/A; for pest or weed control at 2241.7 g/ha: Avena fatua, post-emergence, 336 h, read-out: % control, Wild oat
Outline: as §1

`CCCCCCCCOC(=O)C(C)Oc1ccc(Oc2ccc(C(F)(F)F)cc2Cl)cc1` (centres unmarked) [Example 26] was tested, and the pest or weed control at 2241.7 g/ha [1] was 0%, the pest or weed control at 2241.7 g/ha [2] was 0% and the pest or weed control at 2241.7 g/ha [3] was 0%. It also gave a pest or weed control at 2241.7 g/ha [4] of 0%, a pest or weed control at 2241.7 g/ha [5] of 0% and a pest or weed control at 2241.7 g/ha [6] of 50%. The pest or weed control at 2241.7 g/ha [7] was 0%, the pest or weed control at 2241.7 g/ha [8] was 0% and the pest or weed control at 2241.7 g/ha [9] was 0%. It also gave a pest or weed control at 2241.7 g/ha [10] of 50%, a pest or weed control at 2241.7 g/ha [11] of 60% and a pest or weed control at 2241.7 g/ha [12] of 70%. It also gave a pest or weed control at 2241.7 g/ha [13] of 70%, a pest or weed control at 2241.7 g/ha [14] of 30% and a pest or weed control at 2241.7 g/ha [15] of 50%. For the same compound, the pest or weed control at 2241.7 g/ha [16] was 100%, the pest or weed control at 2241.7 g/ha [17] was 50% and the pest or weed control at 2241.7 g/ha [18] was 100%. The pest or weed control at 2241.7 g/ha [19] was 20% and the pest or weed control at 2241.7 g/ha [20] was 20%.
Work on `CCCOC(=O)C(C)Oc1ccc(Oc2ccc(C(F)(F)F)cc2Cl)cc1` (centres unmarked) [Example 32] yielded a pest or weed control at 2241.7 g/ha [1] of 0%, a pest or weed control at 2241.7 g/ha [2] of 0% and a pest or weed control at 2241.7 g/ha [3] of 0%. For the same compound, the pest or weed control at 2241.7 g/ha [4] was 0%, the pest or weed control at 2241.7 g/ha [5] was 0% and the pest or weed control at 2241.7 g/ha [6] was 100%. The pest or weed control at 2241.7 g/ha [7] was 80%, the pest or weed control at 2241.7 g/ha [8] was 100% and the pest or weed control at 2241.7 g/ha [9] was 0%. It also gave a pest or weed control at 2241.7 g/ha [10] of 80%, a pest or weed control at 2241.7 g/ha [11] of 0% and a pest or weed control at 2241.7 g/ha [12] of 20%. The pest or weed control at 2241.7 g/ha [13] was 0%, the pest or weed control at 2241.7 g/ha [14] was 30% and the pest or weed control at 2241.7 g/ha [15] was 30%. For the same compound, the pest or weed control at 2241.7 g/ha [16] was 100%, the pest or weed control at 2241.7 g/ha [17] was 100% and the pest or weed control at 2241.7 g/ha [18] was 100%. The pest or weed control at 2241.7 g/ha [19] was 0% and the pest or weed control at 2241.7 g/ha [20] was 100%.
With `CC(Oc1ccc(Oc2ccc(C(F)(F)F)cc2Cl)cc1)C(=O)O` (centres unmarked) [Example 16] the “% control, Cocklebur” value ([1]; Pre) was 0%, the “% control, Marigold” value ([2]; Pre) was 0% and the “% control, Morningglory” value ([3]; Pre) was 0%. For the same compound, the “% control, Tomato” value [4] was 0%, the “% control, Velvetleaf” value [5] was 0% and the “% control, Barnyardgrass” value [6] was 100%. The “% control, Downybrome” value [7] was 70%, the “% control, Foxtail” value [8] was 100% and the “% control, Nutsedge” value ([9]; Pre) was 0%. The “% control, Wild oat” value [10] was 70%, the “% control, Cocklebur” value ([11]; Post) was 0% and the “% control, Marigold” value ([12]; Post) was 0%. The “% control, Morningglory” value ([13]; Post) was 0%, the “% control, Tomato” value [14] was 0% and the “% control, Velvetleaf” value ([15]; Post) was 0%. For the same compound, the “% control, Barnyardgrass” value [16] was 100%, the “% control, Downybrome” value [17] was 0% and the “% control, Foxtail” value [18] was 90%. For the same compound, the “% control, Nutsedge” value ([19]; Post) was 0% and the “% control, Wild oat” value [20] was 80%.
For `CC(C#N)Oc1ccc(Oc2ccc(C(F)(F)F)cc2Cl)cc1` (centres unmarked) [Example 19, 2-[4-(2-chloro-4-trifluoromethylphenoxy)phenoxy] propionitrile], the pest or weed control at 2241.7 g/ha [1] was 0%, the pest or weed control at 2241.7 g/ha [2] was 0% and the pest or weed control at 2241.7 g/ha [3] was 0%. It also gave a pest or weed control at 2241.7 g/ha [4] of 0%, a pest or weed control at 2241.7 g/ha [5] of 0% and a pest or weed control at 2241.7 g/ha [6] of 100%. It also gave a pest or weed control at 2241.7 g/ha [7] of 20%, a pest or weed control at 2241.7 g/ha [8] of 100% and a pest or weed control at 2241.7 g/ha [9] of 0%. For the same compound, the pest or weed control at 2241.7 g/ha [10] was 30%, the pest or weed control at 2241.7 g/ha [11] was 0% and the pest or weed control at 2241.7 g/ha [12] was 0%. For the same compound, the pest or weed control at 2241.7 g/ha [13] was 0%, the pest or weed control at 2241.7 g/ha [14] was 0% and the pest or weed control at 2241.7 g/ha [15] was 0%. The pest or weed control at 2241.7 g/ha [16] was 99%, the pest or weed control at 2241.7 g/ha [17] was 30% and the pest or weed control at 2241.7 g/ha [18] was 99%. For the same compound, the pest or weed control at 2241.7 g/ha [19] was 0% and the pest or weed control at 2241.7 g/ha [20] was 90%.
